Data as given in patent US9187429B2, “Phenyl-tetrahydroisoquinoline derivatives” (Hoffmann-La Roche Inc., priority 2012, dated 2015).

How the values were obtained:
human CYP11B1 = human CYP11B1 (Homo sapiens (Human), UniProt P15538); assay: G-402 cellular enzyme assay, human CYP11B1 (cortisol release); format: cell-based; conditions: G-402 cells expressing human CYP11B1, 1 μM Deoxycortisol
Description: (§1) The expression plasmids contains the ORF for either human/cyno CYP11B1 or CYP11B2 under the control of a suitable promoter (CMV-promoter) and a suitable resistance marker (neomycin). Using standard techniques the expression plasmid is transfected into G-402 cells and these cells are then selected for expressing the given resistance markers. Individual cell-clones are then selected and assessed for displaying the desired enzymatic activity using 11-Deoxycorticosterone (Cyp 11B2) or 11-Deoxycortisol (Cyp 11B1) as a substrate.
(§2) G-402 cells expressing CYP11 constructs were established as described above and maintained in McCoy's 5a Medium Modified, ATCC Catalog No. 30-2007 containing 10% FCS and 400 μg/ml G418 (Geneticin) at 37° C. under an atmosphere of 5% CO2/95% air. […] For assaying enzymatic activity, cells were plated onto 96 well plates and incubated for 16 h. An aliquot of the supernatant is then transferred and analyzed for the concentration of the expected product (Aldosterone for CYP11B2; Cortisol for CYP11B1). The concentrations of these steroids can be determined using HTRF assays from CisBio analyzing either Aldosterone or Cortisol.
(§3) Inhibition of the release of produced steroids can be used as a measure of the respective enzyme inhibition by test compounds added during the cellular enzyme assay. The dose dependent inhibition of enzymatic activity by a compound is calculated by means of plotting added inhibitor concentrations (x-axes) vs. measured steroid/product level (y-axes). The inhibition is then calculated by fitting the following 4-parameter sigmoidal function (Morgan-Mercer-Flodin (MMF) model) to the raw data points using the least squares method:
(§4) [formula] wherein, A is the maximum y value, B is the EC50 factor determined using XLFit, C is the minimum y value and D is the slope value.
(§5) EC50 values for compounds claimed herein were tested with the G402-based assay system described. Cyp 11B2 enzyme activity was tested in presence of 1 μM Deoxycorticosterone and variable amounts of inhibitors; Cyp 11B1 enzyme activity was tested in presence of 1 μM Deoxycortisol and variable amounts of inhibitors.

CYP11B2 = CYP11B2 (Homo sapiens (Human), UniProt P19099); assay: G-402 cellular enzyme assay, human CYP11B2 (aldosterone release); format: cell-based; conditions: G-402 cells expressing human CYP11B2, 1 μM Deoxycorticosterone
CYP11B2, sequence (P19099 25-503): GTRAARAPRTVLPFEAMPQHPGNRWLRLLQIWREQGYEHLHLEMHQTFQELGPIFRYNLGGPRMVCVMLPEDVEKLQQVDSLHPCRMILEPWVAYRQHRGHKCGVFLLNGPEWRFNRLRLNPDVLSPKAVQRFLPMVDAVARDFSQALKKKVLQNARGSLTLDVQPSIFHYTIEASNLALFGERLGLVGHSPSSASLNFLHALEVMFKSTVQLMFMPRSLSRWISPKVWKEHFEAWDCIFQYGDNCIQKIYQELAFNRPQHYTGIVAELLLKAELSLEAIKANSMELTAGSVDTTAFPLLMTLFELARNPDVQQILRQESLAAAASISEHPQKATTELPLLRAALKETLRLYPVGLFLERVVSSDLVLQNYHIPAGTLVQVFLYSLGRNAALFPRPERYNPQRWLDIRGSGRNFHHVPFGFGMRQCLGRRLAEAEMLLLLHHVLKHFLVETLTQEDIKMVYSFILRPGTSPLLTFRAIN
Description: as §1, §2, §3, §4, §5

human CYP11B1, sequence (P15538 25-503): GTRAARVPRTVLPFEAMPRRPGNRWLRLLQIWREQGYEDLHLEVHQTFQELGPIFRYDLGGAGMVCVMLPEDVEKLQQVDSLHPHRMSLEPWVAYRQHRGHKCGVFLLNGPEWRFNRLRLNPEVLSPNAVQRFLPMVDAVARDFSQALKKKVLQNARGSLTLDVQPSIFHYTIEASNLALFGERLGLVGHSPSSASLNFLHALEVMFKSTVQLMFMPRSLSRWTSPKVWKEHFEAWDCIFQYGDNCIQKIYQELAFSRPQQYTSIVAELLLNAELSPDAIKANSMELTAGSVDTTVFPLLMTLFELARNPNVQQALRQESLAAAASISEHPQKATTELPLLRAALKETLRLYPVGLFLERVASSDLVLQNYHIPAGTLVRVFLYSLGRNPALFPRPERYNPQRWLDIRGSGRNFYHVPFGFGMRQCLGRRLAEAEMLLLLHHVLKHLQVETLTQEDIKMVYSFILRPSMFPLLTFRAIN

SMILES	EC50 (human CYP11B1) [nM]	EC50 (CYP11B2) [nM]
CCC(=O)N[C@@H]1c2cncc(-c3ccc(C(F)(F)F)cc3)c2CC[C@H]1C (single isomer, unassigned) [Example 67, N-[(7R,8S or 7S,8R)-7-Methyl-4-(4-trifluoromethyl-phenyl)-5,6,7,8-tetrahydro-isoquinolin-8-yl]-propionamide]	8470	764
CCC(=O)NC1CCc2c(-c3ccc(C(F)(F)F)cc3F)cncc21 (single isomer, unassigned; (+)) [Example 63, (+)-(R or S)—N-(4-(2-Fluoro-4-(trifluoromethyl)phenyl)-6,7-dihydro-5H-cyclopenta[c]pyridin-7-yl)propionamide]	1720	30
CC(C)(C)OC(=O)COC1CCc2c(-c3ccc(C(F)(F)F)cc3)cncc21 (racemic) [Example 97, (rac)-tert-Butyl 2-(4-(4-(trifluoromethyl)phenyl)-6,7-dihydro-5H-cyclopenta[c]pyridin-7-yloxy)acetate]	72.4	1.4
CCC(=O)NC1CCc2c(-c3ccc(C(F)(F)F)cc3)cncc21 (single isomer, unassigned; (+)) [Example 51, (+)-(R or S)—N-(4-(4-(Trifluoromethyl)phenyl)-6,7-dihydro-5H-cyclopenta[c]pyridin-7-yl)propionamide]	2260	25
CCC(=O)NC1CCc2c(-c3ccc(F)c(C)c3)cncc21 (racemic) [Example 58, (rac)-N-(4-(4-Fluoro-3-methylphenyl)-6,7-dihydro-5H-cyclopenta[c]pyridin-7-yl)propionamide]	156	10
CCC(=O)N[C@H]1c2cncc(-c3ccc(C(F)(F)F)cc3)c2CC[C@H]1C (single isomer, unassigned) [Example 70, N-[(7R,8R or 7S,8S)-7-Methyl-4-(4-trifluoromethyl-phenyl)-5,6,7,8-tetrahydro-isoquinolin-8-yl]-propionamide]	3030	42
CCNC(=O)OC1CCCc2c(-c3ccc(C#N)cc3)cncc21 (racemic) [Example 12, (rac)-4-(4-Cyanophenyl)-5,6,7,8-tetrahydroisoquinolin-8-yl ethylcarbamate]	30	25
CC(=O)N[C@@H]1CCCc2c(-c3ccc(C(F)(F)F)c(F)c3)cncc21 [Example 79, (+)-(R)—N-(4-(3-Fluoro-4-(trifluoromethyl)phenyl)-5,6,7,8-tetrahydroisoquinolin-8-yl)acetamide]	1780	35.6
CCC(=O)NC1CCCc2c(-c3cc(F)c(F)cc3F)cncc21 (racemic) [Example 43, (rac)-N-(4-(2,4,5-Trifluorophenyl)-5,6,7,8-tetrahydroisoquinolin-8-yl)propionamide]	1150	27
C[C@@H](O)C(=O)NC1CCc2c(-c3ccc(C(F)(F)F)cc3)cncc21 (single isomer, unassigned; (+)) [Example 54, (+)-(R)-2-Hydroxy-N—((R or S)-4-(4-(trifluoromethyl)phenyl)-6,7-dihydro-5H-cyclopenta[c]pyridin-7-yl)propanamide]	3170	89
CCC(=O)NC1CCCc2c(-c3ccc(Cl)c(Cl)c3)cncc21 (racemic) [Example 45, (rac)-N-(4-(3,4-Dichlorophenyl)-5,6,7,8-tetrahydroisoquinolin-8-yl)propionamide]	177	3
CCC(=O)N[C@H]1c2cncc(-c3ccc(C(F)(F)F)cc3)c2CC[C@@H]1C (single isomer, unassigned) [Example 69, N-[(7S,8R or 7R,8S)-7-Methyl-4-(4-trifluoromethyl-phenyl)-5,6,7,8-tetrahydro-isoquinolin-8-yl]-propionamide]	742	11

More lines, in order of falling EC50 (human CYP11B1), values ahead:

EC50 (human CYP11B1) [nM]	EC50 (CYP11B2) [nM]	SMILES
14700	159	CCC(=O)NC1CCCc2c(-c3ccc(C(F)(F)F)cc3F)cncc21 (racemic) [Example 33, (rac)-N-(4-(2-Fluoro-4-(trifluoromethyl)phenyl)-5,6,7,8-tetrahydroisoquinolin-8-yl)propionamide]
7220	879	CCC(=O)NC1CCc2c(-c3ccc(C#N)cc3)cncc21 (single isomer, unassigned; (-)) [Example 18, (−)-(S or R)—N-(4-(4-Cyanophenyl)-6,7-dihydro-5H-cyclopenta[c]pyridin-7-yl)propionamide]
3240	29	CCC(=O)NC1CCCc2c(-c3ccc(C(F)(F)F)c(F)c3)cncc21 (racemic) [Example 39, (rac)-N-(4-(3-Fluoro-4-(trifluoromethyl)phenyl)-5,6,7,8-tetrahydroisoquinolin-8-yl)propionamide]
2170	220	CCNC(=O)NC1CCCc2c(-c3ccc(C#N)cc3)cncc21 (racemic) [Example 4, (rac)-1-(4-(4-Cyanophenyl)-5,6,7,8-tetrahydroisoquinolin-8-yl)-3-ethylurea]
2100	79	C[C@@H](O)C(=O)NC1CCCc2c(-c3ccc(C(F)(F)F)cc3)cncc21 (single isomer, unassigned; (-)) [Example 48, (−)-(R)-2-Hydroxy-N—[(S or R)-4-(4-trifluoromethyl-phenyl)-5,6,7,8-tetrahydro-isoquinolin-8-yl]-propionamide]
1220	32.8	N[C@@H]1CCCc2c(-c3ccc(C(F)(F)F)cc3F)cncc21 [Example 74, (+)-(R)-4-(2-Fluoro-4-(trifluoromethyl)phenyl)-5,6,7,8-tetrahydroisoquinolin-8-amine]
1090	207	CCS(=O)(=O)NC1CCCc2c(-c3ccc(C#N)cc3)cncc21 (racemic) [Example 2, (rac)-N-(4-(4-Cyanophenyl)-5,6,7,8-tetrahydroisoquinolin-8-yl)ethanesulfonamide]
430	12.9	CNC(=O)COC1CCc2c(-c3ccc(C(F)(F)F)cc3)cncc21 (racemic) [Example 100, (rac)-N-Methyl-2-(4-(4-(trifluoromethyl)phenyl)-6,7-dihydro-5H-cyclopenta[c]pyridin-7-yloxy)acetamide]
241	4	CCC(=O)NC1CCCc2c(-c3ccc(F)c(C)c3)cncc21 (single isomer, unassigned; (+)) [Example 29, (+)-(R or S)—N-(4-(4-fluoro-3-methylphenyl)-5,6,7,8-tetrahydroisoquinolin-8-yl)propionamide]
214	7	CCC(=O)NC1CCCc2c(-c3ccc(Cl)c(F)c3)cncc21 (single isomer, unassigned; (+)) [Example 38, (+)-(R or S)—N-(4-(4-Chloro-3-fluorophenyl)-5,6,7,8-tetrahydroisoquinolin-8-yl)propionamide]
12	1.3	N#Cc1ccc(-c2cncc3c2CCC3O)cc1 (racemic) [Example 81, (rac)-4-(7-Hydroxy-6,7-dihydro-5H-cyclopenta[c]pyridin-4-yl)benzonitrile]
5	4.8	CC1(O)CCc2c(-c3ccc(C(F)(F)F)cc3)cncc21 (racemic) [Example 84, (rac)-7-Methyl-4-(4-(trifluoromethyl)phenyl)-6,7-dihydro-5H-cyclopenta[c]pyridin-7-ol]
